“And” between values parts separate entries of the source, which are not always exact repeats. Equal values may be shown once. Read-outs that look alike come from different tables or passages of the source. Values belong to the compound of their own block, whether it stands above or below them.
Key:
[1] = tested on: MRP2; set-up: method as in Vermeer et al., 2016; details: in-vitro data; ref Vermeer et al., 2016; cited from earlier work
[2] = ref Kristin et al., 2017; cited from earlier work
[3] = tested on: P-glycoprotein; set-up: method as in Vermeer et al., 2016; details: in-vitro data; ref Vermeer et al., 2016; cited from earlier work
[4] = tested on: CYP3A4; set-up: method as in Elsby et al., 2019; details: ref Elsby et al., 2019; read-out: inhibition constant Ki; cited from earlier work
[5] = tested on: OATP 1B3; set-up: method as in Müller and Fromm, 2011; Vermeer et al., 2016; details: ref Müller and Fromm, 2011; Vermeer et al., 2016; cited from earlier work
[6] = tested on: CYP3A4; set-up: method as in Obach et al., 2006; Galetin et al., 2007; details: ref Obach et al., 2006; Galetin et al., 2007; cited from earlier work
[7] = tested on: 2C9; set-up: method as in Obach et al., 2006; details: in-vitro data; ref Obach et al., 2006; cited from earlier work
[8] = cited from earlier work
[9] = tested on: CYP2C19; set-up: method as in Obach et al., 2006; details: in-vitro data; ref Obach et al., 2006; cited from earlier work
[10] = tested on: OATP1B1; set-up: method as in Müller and Fromm, 2011; Vermeer et al., 2016; details: ref Müller and Fromm, 2011; Vermeer et al., 2016; cited from earlier work
[11] = tested on: CYP3A4; set-up: method as in Mikus et al., 2006; details: read-out: Michaelis-Menten constant (Km) of voriconazole oxidase activity; CYP3A4 expressed in human CYP enzyme; ref Mikus et al., 2006; cited from earlier work
[12] = Single oral dose, randomized, crossover PK-DDI study of voriconazole with clarithromycin; plasma voriconazole by RP HPLC UV-Vis, non-compartmental analysis; type: in vivo, human; details: for Cmaax of voriconazole, Mean & std. Deviation / Erate (elimination rate) of voriconazole, Mean & std. Deviation / tmax (time to reach Cmax) of voriconazole, Mean & std. Deviation: single oral dose; for concentration at 0.5 h / concentration at 1 h / concentration at 1.5 h / concentration at 2 h / concentration at 3 h / concentration at 4 h / concentration at 6 h / concentration at 8 h / concentration at 24 h: male, oral, Voriconazole plasma concentration
Method: The study designed was a single oral dose, open-labeled, randomized, crossover, and consisted of 02 weeks of washouts in between for evaluating drug-drug interaction in healthy volunteers.
A 2-week washout period was allocated from day 2 to day 15 to avoid the carry-over effect. […] All volunteers took the medication with a glass of water (250 mL). On days 1 and 16 (treatment days), two and 6 hours after drug administration, standard breakfast and lunch were served to all volunteers, respectively.
After taking blood samples, immediately these samples were centrifuged (at 500 rpm for 10–15 min) to separate plasma from blood (RBC) and stored at −80°C till analysis.
The plasma samples were subjected to protein precipitation and drug extraction with acetonitrile (ACN). A fixed volume of plasma (200 μL), ACN (200 μL), and internal standard (i.e., 2 μg/mL of fluconazole), taken into Eppendorf tubes were vortexed (for 5 min) and kept in the centrifuge at 10,000 RPM for 10–15 min for protein separation. Their supernatant (organic layer) layer was cautiously separated and analyzed by the already developed method. Chromatographic conditions of the HPLC-UV method comprised of isocratic mobile-phase ACN: H2O in 60:40 v/v proportions at a flow rate of 1.5 mL/min and UV detection at 254 nm. Then each sample was analyzed at least three times using the Flexar-series HPLC system, Norwalk, USA, by utilizing a C-18 Perkin-Elmer® column (with particulars of 150 mm length, 4.6 mm inner diameter, and 5 μm particle size). The total run time for each sample was ≤7.0 min.
The pharmacokinetic (PK) parameters used for PK-DDI assessment and plasma drug concentration vs. time profile were analyzed statistically through a non-compartmental approach.Pharmacokinetics PK-Summit® (version 2.0.2; Summit Research Services, Ashland, OH) software was used to evaluate all pharmacokinetic parameters. The various non-compartmental pharmacokinetic (PK) parameters calculated were peak plasma concentration (Cmax, µg/mL), time to reach Cmax (tmax, h), the elimination half-life (E-t1/2, h), an area under the curve from time zero to infinity (AUC^0-∞, μg×h/mL), and the area under the concentration-time curve from time zero to time-t (AUC^0-t, μg×h/mL), mean residence time (MRT, h), elimination rate (Erate, 1/h), apparent clearance (CL/Kg, L/h/Kg) and apparent volume of distribution (Vd, L/Kg).
Descriptive statistical tests were performed using SPSS software (version 21.0; IBM Crop; SPSS®; 2012); for a non-compartmental approach Pharmacokinetics PK-Summit® (version 2.0.2; Summit Research Services, Ashland, OH) software and MS-Excel used for results evaluation, and such data were presented graphically. […] The SPSS software (version 21.0; IBM Crop; SPSS®; 2012) procedure MIXED was used with treatment and visits as a fixed effect and subject as a random effect using the Residual maximum likelihood REML method. Sharpiro-Wilk test was used to check the normality of PK parameters. Log transformation was applied to those PK parameters (such as Cmax, MRT, apparent Vd, and E-t1/2) which were not normally distributed. […] These differences were evaluated by the ratios of geometric means between treatments and used a 90% CI for these ratios.

[13] = ref Geist et al., 2013; Hohmann et al., 2016; cited from earlier work
[14] = clinical; details: human, in vivo
From the text: After the second sequence of drug administration, follow-up data were collected for 2 weeks (from day 16 to day 30) from all volunteers regarding any side effects or toxicity-related issues. […] Blurring vision has been reported as a major side effect in the literature ([Theuretzbacher et al., 2006]). […] In the follow-up period, we carefully monitored the aspartate aminotransferase (AST) and alanine transaminase (ALT) biochemical test reports of that volunteer.

[15] = Voriz (Alone): voriconazole 200 mg × 2 tablets, n = 12
[16] = Voriz + CLRM: voriconazole 200 mg × 2 tablets + clarithromycin 500 mg tablet, n = 12
[17] = human, plasma, 400 mg, Series 1: voriconazole 400 mg alone
[18] = human, plasma, Series 2: voriconazole 400 mg along with clarithromycin 500 mg
[19] = with clarithromycin versus alone, stated as decrease

SMILES: CC[C@H]1OC(=O)[C@H](C)[C@@H](O[C@H]2C[C@@](C)(OC)[C@@H](O)[C@H](C)O2)[C@H](C)[C@@H](O[C@@H]2O[C@H](C)C[C@H](N(C)C)[C@H]2O)[C@](C)(OC)C[C@@H](C)C(=O)[C@H](C)[C@@H](O)[C@]1(C)O [clarithromycin, 6-O-Methylerthromycin]
- IC50 [1]: > 50 µM
- BCS class [2]: class-II
- IC50 [3]: 8.9 ± 0.5 µM
- IC50 [5]: 14 ± 2 µM
- potential to inhibit the CYP3A4 at the intestinal level [6]: 60%–70
- inhibitory concentration of 2C9 [7]: 4%
- protein binding ([8]; ref Langtry and Brogden, 1997): 42%–72
- inhibitory concentration of CYP2C19 [9]: 11%
- IC50 [10]: 5.3 ± 1.3 µM

- Cmaax of voriconazole, Mean & std. Deviation ([12]; Voriz (Alone): voriconazole 200 mg × 2 tablets, fasted healthy male volunteers n = 12): 2.52 ± 0.21 µg/mL
- Erate (elimination rate) of voriconazole, Mean & std. Deviation [12, 15]: 0.09 h⁻¹ and 0.09 ± 0.02 h⁻¹
- tmax (time to reach Cmax) of voriconazole, Mean & std. Deviation [12, 15]: 2.00 ± 0 h and 2 h
- AUC0-t of voriconazole, % difference ([12]; Voriz + CLRM vs Voriz (Alone)): 16%
- Apparent Vd/kg of voriconazole, % difference ([12]; Voriz + CLRM vs Voriz (Alone)): −23%
- Cmaax of voriconazole, % difference ([12]; Voriz + CLRM vs Voriz (Alone)): 52%
- MRT of voriconazole, % difference ([12]; Voriz + CLRM vs Voriz (Alone)): −10%
- tmax of voriconazole, % difference ([12]; Voriz + CLRM vs Voriz (Alone)): −25%
- Cmaax of voriconazole, Mean & std. Deviation [12, 16]: 3.84 ± 0.562 µg/mL
- Erate (elimination rate) of voriconazole, Mean & std. Deviation [12, 16]: 0.11 h⁻¹ and 0.11 ± 0.02 h⁻¹
- tmax (time to reach Cmax) of voriconazole, Mean & std. Deviation [12, 16]: 1.50 ± 0 h and 1.5 h
- AUC(0-inf) ([12]; human, plasma, po, 400 mg): 9090 ± 790 ng·h/mL
- AUC(0-t) ([12]; human, plasma, po, 400 mg): 8600 ± 720 ng·h/mL
- MRT ([12]; human, plasma, po, 400 mg): 6.16 ± 0.95 h
- half-life ([12]; human, plasma, po, 400 mg): 7.94 ± 0.53 h
- concentration at 0.5 h [12, 17]: 225 ng/mL
- concentration at 1 h [12, 17]: 1020 ng/mL
- concentration at 1.5 h [12, 17]: 1890 ng/mL
- concentration at 2 h [12, 17]: 2520 ng/mL
- concentration at 3 h [12, 17]: 1320 ng/mL
- concentration at 4 h [12, 17]: 781 ng/mL
- concentration at 6 h [12, 17]: 401 ng/mL
- concentration at 8 h [12, 17]: 170 ng/mL
- concentration at 24 h [12, 17]: 39.1 ng/mL
- concentration at 0.5 h [12, 18]: 378 ng/mL
- concentration at 1 h [12, 18]: 2040 ng/mL
- concentration at 1.5 h [12, 18]: 3840 ng/mL
- concentration at 2 h [12, 18]: 2500 ng/mL
- concentration at 3 h [12, 18]: 995 ng/mL
- concentration at 4 h [12, 18]: 661 ng/mL
- concentration at 6 h [12, 18]: 433 ng/mL
- concentration at 8 h [12, 18]: 224 ng/mL
- concentration at 24 h [12, 18]: 41.8 ng/mL
- decrease in tmax of voriconazole [12, 19]: 25%
- decrease of E-t1/2 of voriconazole [12, 19]: 26%
- decrease of MRT of voriconazole [12, 19]: 10%
- reduction (decrease) in the apparent volume of distribution (Vd) of voriconazole [12, 19]: 23%
- Cmax ([14]; male): 5000 ng/mL
- Duration of blurred vision ([14]; male): 10 to 15 min
SMILES: C[C@@H](c1ncncc1F)[C@](O)(Cn1cncn1)c1ccc(F)cc1F [voriconazole, (2R, 3S) -2-(2,4-difluorophenyl) -3-(5-fluora-4pyrimidinyl) -1-(1H −1,2,4-trizole-1-yl) -2-butanol]
- Km [11]: 235 µM
- oral bioavailability (B.A) [13]: 96%
- protein binding ([8]; ref Geist et al., 2013): 58%
- Side effect: blurred vision [14]: Blurred vision was observed in two volunteers
- Side effect: dizziness [14]: One of our volunteers had felt dizziness
